Reference: ChEMBL document CHEMBL2086228, “Radiosynthesis and in vivo tumor uptake of 2-deoxy-2-[(18)F]fluoro-myo-inositol” (Bioorg Med Chem Lett, 2012)

Tests used:
[1] = Drug uptake in tumor of human MDA-MB-231 cells xenografted athymic nude BALB/c mouse at 3 to 3.7 MBq, iv up to 10 mins by PET scanning analysis; format: ADME, organism-based, Neoplasm; details: in vivo
Heart = test: Drug uptake in heart of athymic nude BALB/c mouse xenografted with human MDA-MB-231 cells at 3 to 3.7 MBq, iv at 30 to 60 mins by PET scanning analysis; format: ADME, organism-based; details: in vivo
Nucleic Acid = test: Ratio of drug level in liver to blood in athymic nude BALB/c mouse xenografted with human MDA-MB-231 cells at 3 to 3.7 MBq, iv after 60 mins by gamma counting; format: ADME, organism-based; details: other tissue, 1 h
Kidney = test: Drug uptake in kidney of athymic nude BALB/c mouse xenografted with human MDA-MB-231 cells at 3 to 3.7 MBq, iv up to 60 mins by PET scanning analysis; format: ADME, organism-based; details: in vivo, 1 h
Urinary bladder = test: Drug uptake in bladder of athymic nude BALB/c mouse xenografted with human MDA-MB-231 cells at 3 to 3.7 MBq, iv at 30 to 60 mins by PET scanning analysis; format: ADME, organism-based; details: in vivo
[2] = Drug uptake in tumor of human MDA-MB-231 cells xenografted athymic nude BALB/c mouse at 3 to 3.7 MBq, iv up to 60 mins by PET scanning analysis; format: ADME, organism-based, Neoplasm; details: in vivo, 1 h

| Compound | Drug uptake [1] | Drug uptake (Heart) | Ratio (Nucleic Acid) | Drug uptake (Kidney) | Drug uptake (Urinary bladder) | Drug uptake [2] |
| --- | --- | --- | --- | --- | --- | --- |
| O[C@@H]1[C@@H](O)[C@H](O)[C@H]([18F])[C@H](O)[C@H]1O | Active | Active | 1.7 | Active | Active | Active |
| O[C@@H]1[C@@H](O)[C@H](O)[C@@H]([18F])[C@H](O)[C@H]1O | Active | – | 1.5 | – | – | Active |
